Test results from US10702556B2, “Compositions and methods for inducing angiogenesis” (MINOVIA THERAPEUTICS LTD., priority 2012, dated 2020).

Tested on: mouse aortic rings
Assay: Mouse aortic ring sprouting (ex-vivo angiogenesis)
Type: cell-based
Procedure: Thoracic aorta were removed from female C57/BL mice and cut into 0.5 mm rings. Aortic rings were incubated in serum-free medium and either left untreated or treated with 0.5 μM Rotenone for 4 hours. To assess mitochondria effect on sprouting of aortic rings, half of the non-treated rings were washed and incubated with 25 μg of C57/BL mouse placental mitochondria in 2 ml serum-free medium. After 24 hours the rings were embedded in rat tail collagen, one ring per well in a 96 wells plate. After 8 days in culture the level of sprouting was evaluated by counting the number of vessels per ring.
The effect of VEGF, mitochondria and mitochondria+VEGF on sprouting of aortic rings in-vitro was examined Mouse aortic rings were prepared as described in example 7 and were either left un-treated (NT), treated with 25 μg mouse placental mitochondria in 2 ml OptiMem medium for 24 h (Mito), incubated in OptiMem medium containing 2.5% FBS and 30 ng/ml mouse VEGF for 48 h (VEGF) or treated with both mitochondria and VEGF (VEGF+Mito). The number of new blood vessels sprouting from the aortic rings was counted on day 8.
Mouse aortic rings were prepared as described in example 7 and were either left un-treated or treated with increasing amounts (2-350 μg) of mouse placental mitochondria in 2 ml OptiMem medium for 24 h. The number of new blood vessels sprouting from the aortic rings was counted on day 7.
The effect of mitochondria on the number of blood vessels was evaluated in a mouse aortic ring model. Mouse aortic rings were prepared as described in example 7 and were either left un-treated (Control), treated for 24 h with 25 μg of mouse placental mitochondria (Mito), treated with mitochondria that were inhibited by 2 μM of mitochondria complex I inhibitor Rotenone or treated with mitochondria that were inhibited with 5 μM of the ATP Synthase inhibitor Oligomycin for 24 h. The number of new blood vessels sprouting from the aortic rings was counted on day 8.

Row | Compound | number of vessels per ring (sprouting) (0.5 μM Rotenone for 4 hours, 8 days in culture) | number of new blood vessels sprouting from the aortic rings, comparison between treated groups (25 μg mitochondria 24 h, 30 ng/ml mouse VEGF 48 h, or both, day 8)
1 | C=C(C)[C@H]1Cc2c(ccc3c2O[C@@H]2COc4cc(OC)c(OC)cc4[C@@H]2C3=O)O1 [Rotenone] | blocked the sprouting almost completely | 
2 | VEGF |  | no significant difference
